Assay results from patent publication US20250134952A1, “METHODS FOR IMPROVING THE EFFICACY OF HDAC INHIBITOR THERAPY AND PREDICTING THE RESPONSE TO TREATMENT WITH HDAC INHIBITOR” (INSTITUT NATIONAL DE LA SANTÉ ET DE LA RECHERCHE MÉDICALE, priority 2021, published 2025).

System: chromatin remodeling (pericentromeric heterochromatin)
Assay: Chromatin remodeling with G9a inhibitor, effect of Tau (data not shown)
Type: cell-based

**Q.** With `COc1cc2nc(N3CCCN(C)CC3)nc(NC3CCN(Cc4ccccc4)CC3)c2cc1OC` [BIX 01294] as the molecule, how does the “effect of Tau in preventing chromatin remodeling, compared with trichostatin A” value read?
**A.** Its value is “same results”.
